The record followed here is PubChem BioAssay AID256 (DTP/NCI, 2004).

For the experiment, the system named is CD2F1 mice, L1210 leukemia ip, survival T/C. Put plainly: NCI In Vivo Anticancer Drug Screen. Data for tumor model L1210 Leukemia (intraperitoneal) in CD2F1 (CDF1) mice. Particulars: higher = longer survival. In a few lines:
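Each value reflects a quotient of treated over vehicle control outcomes in mice with a transplanted tumor.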

Where “and” joins values, the source holds several entries; their conditions need not be identical. Identical values can stand only once. Toxic doses and inconclusive results are not listed.

Turning to `CCOCCNc1ccc(S(=O)(=O)c2ccc(N)cc2)cc1N`, the T/C by setting is: (endpoint: mean survival time, dose: 100.0 mg/kg/injection, schedule: Q01DX009 (ip), vehicle: saline) 103 % of control; (endpoint: mean survival time, dose: 200.0 mg/kg/injection, schedule: Q01DX009 (ip), vehicle: saline) 92 % of control; (endpoint: mean survival time, dose: 400.0 mg/kg/injection, schedule: Q01DX009 (ip), vehicle: saline) 92 % of control.
`OCC1OC(n2cnc3c([Se]Cc4ccccn4)ncnc32)C(O)C1O` (stereo not given): the T/C was 102 % of control (endpoint: mean survival time, dose: 3.12 mg/kg/injection, schedule: Q01DX009 (ip), vehicle: saline); 113 % of control (endpoint: mean survival time, dose: 6.25 mg/kg/injection, schedule: Q01DX009 (ip), vehicle: saline); 100 % of control (endpoint: mean survival time, dose: 12.5 mg/kg/injection, schedule: Q01DX005 (ip), vehicle: saline); 111 % of control (endpoint: mean survival time, dose: 12.5 mg/kg/injection, schedule: Q01DX009 (ip), vehicle: saline).
For the molecule `O=NNc1cnccn1`, the T/C is 112 % of control (endpoint: median survival time, dose: 3.12 mg/kg/injection, schedule: Q01DX009 (ip), vehicle: water); 113 % of control and 109 % of control (endpoint: median survival time, dose: 6.25 mg/kg/injection, schedule: Q01DX009 (ip), vehicle: water); 121 % of control and 107 % of control (endpoint: median survival time, dose: 8.6 mg/kg/injection, schedule: Q01DX009 (ip), vehicle: water); 121 % of control and 124 % of control (endpoint: median survival time, dose: 11.0 mg/kg/injection, schedule: Q01DX009 (ip), vehicle: water); 120 % of control and 123 % of control (endpoint: median survival time, dose: 12.5 mg/kg/injection, schedule: Q01DX009 (ip), vehicle: water); 116 % of control and 112 % of control (endpoint: median survival time, dose: 14.4 mg/kg/injection, schedule: Q01DX009 (ip), vehicle: water). In addition, the T/C is, setting by setting: (endpoint: median survival time, dose: 24.0 mg/kg/injection, schedule: Q01DX009 (ip), vehicle: water) 124 % of control; (endpoint: median survival time, dose: 38.0 mg/kg/injection, schedule: Q01DX009 (ip), vehicle: water) 221 % of control and 223 % of control; (endpoint: median survival time, dose: 40.0 mg/kg/injection, schedule: Q01DX009 (ip), vehicle: water) 183 % of control; (endpoint: median survival time, dose: 50.0 mg/kg/injection, schedule: Q01DX009 (ip), vehicle: water) 121 % of control; (endpoint: median survival time, dose: 100.0 mg/kg/injection, schedule: Q01DX009 (ip), vehicle: water) 92 % of control.
As to `O=C(O)C1(C(=O)O)CCC1`, the T/C runs as follows: (endpoint: mean survival time, dose: 100.0 mg/kg/injection, schedule: Q04DX002 (ip), vehicle: saline) 92 % of control; (endpoint: mean survival time, dose: 200.0 mg/kg/injection, schedule: Q04DX002 (ip), vehicle: saline) 111 % of control.
